Measurements taken from PubChem BioAssay (NCI).
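Dose response: 5 concentrations. Exposure: 48 h. Format: 96-well plates. Endpoint: linear interpolation; highest concentration if not reached. TGI: total growth inhibition.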

Tests used:
Assay in all cases: growth of human tumour cells (NCI), 48 h
786-0 renal = system: 786-0 renal
A498 renal = system: A498 renal
A549 NSCLC = system: A549 NSCLC
ACHN renal = system: ACHN renal
BT-549 breast = system: BT-549 breast
CAKI-1 renal = system: CAKI-1 renal
CCRF-CEM leukemia = system: CCRF-CEM leukemia
COLO 205 colon = system: COLO 205 colon
DU-145 prostate = system: DU-145 prostate
EKVX NSCLC = system: EKVX NSCLC
HCC-2998 colon = system: HCC-2998 colon
HCT-116 colon = system: HCT-116 colon
HCT-15 colon = system: HCT-15 colon
HL-60(TB) leukemia = system: HL-60(TB) leukemia
HOP-62 NSCLC = system: HOP-62 NSCLC
HOP-92 NSCLC = system: HOP-92 NSCLC
HS 578T breast = system: HS 578T breast
HT29 colon = system: HT29 colon
IGROV1 ovarian = system: IGROV1 ovarian
KM12 colon = system: KM12 colon
LOX IMVI melanoma = system: LOX IMVI melanoma
M14 melanoma = system: M14 melanoma
MALME-3M melanoma = system: MALME-3M melanoma
MCF7 breast = system: MCF7 breast
MDA-MB-231 breast = system: MDA-MB-231 breast
MDA-MB-435 = system: MDA-MB-435
MDA-N = system: MDA-N
MOLT-4 leukemia = system: MOLT-4 leukemia
NCI-H226 lung = system: NCI-H226 lung
NCI-H23 lung = system: NCI-H23 lung
NCI-H460 lung = system: NCI-H460 lung
NCI-H522 lung = system: NCI-H522 lung
NCI/ADR-RES ovarian = system: NCI/ADR-RES ovarian
OVCAR-3 ovarian = system: OVCAR-3 ovarian
OVCAR-4 ovarian = system: OVCAR-4 ovarian
OVCAR-5 ovarian = system: OVCAR-5 ovarian
OVCAR-8 ovarian = system: OVCAR-8 ovarian
PC-3 prostate = system: PC-3 prostate
RXF 393 renal = system: RXF 393 renal
SF-268 CNS = system: SF-268 CNS
SF-295 CNS = system: SF-295 CNS
SF-539 CNS = system: SF-539 CNS
SK-MEL-28 melanoma = system: SK-MEL-28 melanoma
SK-MEL-5 melanoma = system: SK-MEL-5 melanoma
SK-OV-3 ovarian = system: SK-OV-3 ovarian
SN12C renal = system: SN12C renal
SNB-19 CNS = system: SNB-19 CNS
SNB-75 CNS = system: SNB-75 CNS
SR leukemia = system: SR leukemia
SW-620 colon = system: SW-620 colon
T-47D breast = system: T-47D breast
TK-10 renal = system: TK-10 renal
UACC-257 melanoma = system: UACC-257 melanoma
UACC-62 melanoma = system: UACC-62 melanoma
UO-31 renal = system: UO-31 renal
SK-MEL-2 melanoma = system: SK-MEL-2 melanoma
U251 CNS = system: U251 CNS

Structure (SMILES): O=C1C=CC(=O)c2c(O)c(N3CCN(c4ccccn4)CC3)c(Cl)c(O)c21
- TGI (786-0 renal): 1.71 µM
- TGI (A498 renal): 9.68 µM
- TGI (A549 NSCLC): 11.8 µM
- TGI (ACHN renal): 6.51 µM
- TGI (BT-549 breast): 3.43 µM
- TGI (CAKI-1 renal): 4.55 µM
- TGI (CCRF-CEM leukemia): 1.84 µM
- TGI (COLO 205 colon): 2.8 µM
- TGI (DU-145 prostate): 10.5 µM
- TGI (EKVX NSCLC): 19.6 µM
- TGI (HCC-2998 colon): 5.99 µM
- TGI (HCT-116 colon): 3.25 µM
- TGI (HCT-15 colon): 2.48 µM
- TGI (HL-60(TB) leukemia): 0.692 µM
- TGI (HOP-62 NSCLC): 9.58 µM
- TGI (HOP-92 NSCLC): 2.72 µM
- TGI (HS 578T breast): 4.97 µM
- TGI (HT29 colon): 2.05 µM
- TGI (IGROV1 ovarian): 3.22 µM
- TGI (KM12 colon): 7.02 µM
- TGI (LOX IMVI melanoma): 0.299 µM
- TGI (M14 melanoma): 2.85 µM
- TGI (MALME-3M melanoma): 3.05 µM
- TGI (MCF7 breast): 3.01 µM
- TGI (MDA-MB-231 breast): 3.55 µM
- TGI (MDA-MB-435): 9.29 µM
- TGI (MDA-N): 2.81 µM
- TGI (MOLT-4 leukemia): 2.01 µM
- TGI (NCI-H226 lung): 10.2 µM
- TGI (NCI-H23 lung): 2.45 µM
- TGI (NCI-H460 lung): 8.53 µM
- TGI (NCI-H522 lung): 3.5 µM
- TGI (NCI/ADR-RES ovarian): 8.98 µM
- TGI (OVCAR-3 ovarian): 4 µM
- TGI (OVCAR-4 ovarian): 3.02 µM
- TGI (OVCAR-5 ovarian): 17.9 µM
- TGI (OVCAR-8 ovarian): 6.25 µM
- TGI (PC-3 prostate): 4.48 µM
- TGI (RXF 393 renal): 3.16 µM
- TGI (SF-268 CNS): 7.44 µM
- TGI (SF-295 CNS): 10.7 µM
- TGI (SF-539 CNS): 3.2 µM
- TGI (SK-MEL-28 melanoma): 3.37 µM
- TGI (SK-MEL-5 melanoma): 2.95 µM
- TGI (SK-OV-3 ovarian): 21.2 µM
- TGI (SN12C renal): 3.36 µM
- TGI (SNB-19 CNS): 18 µM
- TGI (SNB-75 CNS): 3.43 µM
- TGI (SR leukemia): 4.96 µM
- TGI (SW-620 colon): 1.94 µM
- TGI (T-47D breast): 3.07 µM
- TGI (TK-10 renal): 4.94 µM
- TGI (UACC-257 melanoma): 3.87 µM
- TGI (UACC-62 melanoma): 2.01 µM
- TGI (UO-31 renal): 3.68 µM

Structure (SMILES): CCC(O)CC1OC2(CCC1C)CC1OC(=O)/C=C\C(C)(O)C(O)C(C)C(O)C(OC3CC(OC)C(O)C(C)O3)C(O)C(C)(O)CCC/C=C/C3CC(C)COC3(O)CC(O2)C1C (configuration not stated)
- TGI (786-0 renal): > 89.4 µM
- TGI (A498 renal): > 100 µM
- TGI (A549 NSCLC): > 100 µM
- TGI (ACHN renal): 50.9 µM
- TGI (BT-549 breast): 41.2 µM
- TGI (CAKI-1 renal): 33.3 µM
- TGI (CCRF-CEM leukemia): > 60.5 µM
- TGI (COLO 205 colon): 17.2 µM
- TGI (DU-145 prostate): > 100 µM
- TGI (EKVX NSCLC): 26 µM
- TGI (HCC-2998 colon): 62.3 µM
- TGI (HCT-116 colon): 29.5 µM
- TGI (HCT-15 colon): 56.8 µM
- TGI (HL-60(TB) leukemia): 10.6 µM
- TGI (HOP-62 NSCLC): 35.7 µM
- TGI (HOP-92 NSCLC): > 100 µM
- TGI (HS 578T breast): 38.2 µM
- TGI (HT29 colon): 35.1 µM
- TGI (IGROV1 ovarian): 47.1 µM
- TGI (KM12 colon): 16.8 µM
- TGI (LOX IMVI melanoma): 36.7 µM
- TGI (M14 melanoma): 22 µM
- TGI (MALME-3M melanoma): 35.5 µM
- TGI (MCF7 breast): 30.2 µM
- TGI (MDA-MB-231 breast): > 77.9 µM
- TGI (MDA-MB-435): 25.4 µM
- TGI (MDA-N): 23.8 µM
- TGI (MOLT-4 leukemia): 7.84 µM
- TGI (NCI-H226 lung): 27.3 µM
- TGI (NCI-H23 lung): 71 µM
- TGI (NCI-H460 lung): > 75.2 µM
- TGI (NCI-H522 lung): 16.3 µM
- TGI (NCI/ADR-RES ovarian): 45.1 µM
- TGI (OVCAR-3 ovarian): 27.2 µM
- TGI (OVCAR-4 ovarian): 48.6 µM
- TGI (OVCAR-5 ovarian): 53 µM
- TGI (OVCAR-8 ovarian): 24.6 µM
- TGI (PC-3 prostate): 20.4 µM
- TGI (RXF 393 renal): > 100 µM
- TGI (SF-268 CNS): 90.1 µM
- TGI (SF-295 CNS): > 41.8 µM
- TGI (SF-539 CNS): 44.9 µM
- TGI (SK-MEL-2 melanoma): 29.6 µM
- TGI (SK-MEL-28 melanoma): 54.6 µM
- TGI (SK-MEL-5 melanoma): 8.9 µM
- TGI (SK-OV-3 ovarian): > 100 µM
- TGI (SN12C renal): > 77.3 µM
- TGI (SNB-19 CNS): > 100 µM
- TGI (SNB-75 CNS): 27.3 µM
- TGI (SR leukemia): > 80.7 µM
- TGI (SW-620 colon): > 100 µM
- TGI (T-47D breast): 23.6 µM
- TGI (TK-10 renal): 37 µM
- TGI (U251 CNS): > 100 µM
- TGI (UACC-257 melanoma): 15.4 µM
- TGI (UACC-62 melanoma): 32.2 µM
- TGI (UO-31 renal): 68.7 µM
